Key:
[1] = target: T1, PDE5 partially purified from human platelets (Homo sapiens, UniProt O76074); experiment: PDE5 biochemical enzyme assay ([3H]cGMP hydrolysis); settings: 100 μM test substance; 1 μM cGMP, Tris pH 7.5, 20 min, 30° C.
T1 construct: PDE5 partially purified from human platelets was used; from tissue; host or cells: human platelets
Excerpt: (§1) In this example, racemic flosequinan, (R)-(+)-flosequinan, and (S)-(−)-flosequinan were subjected to biochemical enzyme assays to determine their respective percent inhibition of a variety of phosphodiesterases (PDE1-PDE6). The (R)-(+)-flosequinan and (S)-(−)-flosequinan used in this example was resolved by high-performance liquid chromatography (HPLC) as follows. A 5.0 g sample of a racemic mixture of flosequinan was resolved over a 10 cm ID×50 cm L CHIRALCEL OD HPLC column (Chiral Technologies, Exton, Pa.) at 25° C. and with a flow rate of 1.0 ml/minute such that the column pressure was 37 bar. The mobile phase employed was 100% methanol and the detection of the mixture was performed at 270 nm. […] A total of 2.1 g of the (−) enantiomer having an optical purity greater than 99% was produced. A total of 2.3 g of the (+) enantiomer having an optical purity greater than 99% was produced.
PDE5: PDE5 partially purified from human platelets was used. A racemic mixture of flosequinan, and each enantiomer of flosequinan, all at a molar concentration of 100 μM, were independently incubated with 120 μg PDE5 enzyme and 1 μM cGMP containing 0.01 μM [^3H]cGMP in Tris buffer pH 7.5 for 20 minutes at 30° C. The reaction was terminated by boiling for 2 minutes, and the resulting GMP was converted to guanosine by addition of 10 mg/ml snake venom nucleotidase and further incubation at 30° C. for 10 minutes. Unhydrolyzed cGMP was bound to AGI-X2 resin, and the remaining [^3H]guanosine in the aqueous phase was quantitated by scintillation counting.

[2] = system: PDE4 partially purified from human U-937 pronocytic cells; experiment: PDE4 biochemical enzyme assay ([3H]cAMP hydrolysis); settings: 100 μM test substance; 1 μM cAMP, Tris pH 7.5, 20 min, 30° C.
Excerpt: as §1
(§2) PDE4: PDE4 partially purified from human U-937 pronocytic cells was used. A racemic mixture of flosequinan, and each enantiomer of flosequinan, all at a molar concentration of 100 μM, were independently incubated with 20 μg PDE4 enzyme and 1 μM cAMP containing 0.01 μM [^3H]cAMP in Tris buffer pH 7.5 for 20 minutes at 30° C. The reaction was terminated by boiling for 2 minutes, and the resulting AMP was converted to adenosine by addition of 10 mg/ml snake venom nucleotidase and further incubation at 30° C. for 10 minutes. Unhydrolyzed cAMP was bound to AGI-X2 resin, and the remaining [^3H]adenosine in the aqueous phase was quantitated by scintillation counting.

[3] = target: T2, PDE2 partially purified from human platelets (Homo sapiens, UniProt O00408); experiment: PDE2 biochemical enzyme assay ([3H]cAMP hydrolysis); settings: 100 μM test substance; 25 μM cAMP, Tris pH 7.5, 20 min, 30° C.
T2 construct: PDE2 partially purified from human platelets was used; from tissue; host or cells: human platelets
Excerpt: as §1
as §2, with “PDE2: PDE2 partially” for “PDE4: PDE4 partially”, “human platelets” for “human U-937 pronocytic cells”, “with 23” for “with 20”, “μg PDE2 enzyme, 25” for “μg PDE4 enzyme and 1”, “containing 0.05” for “containing 0.01”

[4] = system: PDE1 partially purified from bovine heart; experiment: PDE1 biochemical enzyme assay ([3H]cAMP hydrolysis); settings: 100 μM test substance; 1.0 μM [3H]cAMP, calmodulin, Tris pH 7.5, 20 min, 30° C.
Excerpt: as §1
as §2, with “PDE1: PDE1 partially” for “PDE4: PDE4 partially”, “from bovine heart” for “from human U-937 pronocytic cells”, “with 13” for “with 20”, “μg PDE1 enzyme, 1.0” for “μg PDE4 enzyme and 1 μM cAMP containing 0.01”, “[^3H]cAMP and Cal2/calmodulin” for “[^3H]cAMP”

[5] = target: T3, PDE3 partially purified from human platelets (Homo sapiens, UniProt Q14432); experiment: PDE3 biochemical enzyme assay ([3H]cAMP hydrolysis); settings: 100 μM test substance; 1 μM cAMP, Tris pH 7.5, 20 min, 30° C.
T3 construct: PDE3 partially purified from human platelets was used; from tissue; host or cells: human platelets
Excerpt: as §1
PDE3: PDE3 partially purified from human platelets was used. A racemic mixture of flosequinan, and each enantiomer of flosequinan, all at a molar concentration of 100 μM, were independently incubated with 13 μg PDE3 enzyme and 1 μM cAMP containing 0.01 μM [^3H]cAMP in Tris buffer pH 7.5 for 20 minutes at 30° C. […] Unhydrolyzed cAMP was bound to AGI-X2 resin, and the remaining [^3H]adenosine in the aqueous phase was quantitated by scintillation counting.

[6] = target: T4, PDE6 partially purified from bovine retinal rod and activated by trypsin (Bos taurus, UniProt P11541+P23439); experiment: PDE6 biochemical enzyme assay ([3H]cGMP hydrolysis); settings: 100 μM test substance; 100 μM cGMP, Tris pH 7.5, 20 min, 30° C.
T4 construct: from tissue; host or cells: bovine retinal rod
T4 sequence (P11541 2-856 limits assumed): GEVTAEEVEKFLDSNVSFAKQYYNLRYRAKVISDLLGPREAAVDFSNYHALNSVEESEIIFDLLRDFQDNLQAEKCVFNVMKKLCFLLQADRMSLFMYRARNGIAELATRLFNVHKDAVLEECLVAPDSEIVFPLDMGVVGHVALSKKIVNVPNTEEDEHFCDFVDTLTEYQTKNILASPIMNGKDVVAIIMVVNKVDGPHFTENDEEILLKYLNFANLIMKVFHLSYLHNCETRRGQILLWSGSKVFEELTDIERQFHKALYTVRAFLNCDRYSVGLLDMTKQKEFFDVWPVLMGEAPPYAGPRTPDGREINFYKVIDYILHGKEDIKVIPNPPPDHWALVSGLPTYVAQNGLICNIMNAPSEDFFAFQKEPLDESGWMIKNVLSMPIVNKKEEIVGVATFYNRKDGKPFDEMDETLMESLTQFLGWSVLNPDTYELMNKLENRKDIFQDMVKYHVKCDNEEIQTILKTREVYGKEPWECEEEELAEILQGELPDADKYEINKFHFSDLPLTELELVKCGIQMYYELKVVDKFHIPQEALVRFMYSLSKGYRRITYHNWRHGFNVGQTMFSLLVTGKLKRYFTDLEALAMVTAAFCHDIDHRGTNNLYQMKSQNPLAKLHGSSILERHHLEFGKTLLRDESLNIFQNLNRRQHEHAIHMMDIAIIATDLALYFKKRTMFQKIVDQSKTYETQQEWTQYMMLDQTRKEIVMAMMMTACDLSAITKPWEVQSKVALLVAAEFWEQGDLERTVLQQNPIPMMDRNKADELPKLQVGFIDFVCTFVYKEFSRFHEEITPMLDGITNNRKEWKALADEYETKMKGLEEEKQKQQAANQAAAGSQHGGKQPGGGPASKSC
T4 sequence (P23439 2-850 limits assumed): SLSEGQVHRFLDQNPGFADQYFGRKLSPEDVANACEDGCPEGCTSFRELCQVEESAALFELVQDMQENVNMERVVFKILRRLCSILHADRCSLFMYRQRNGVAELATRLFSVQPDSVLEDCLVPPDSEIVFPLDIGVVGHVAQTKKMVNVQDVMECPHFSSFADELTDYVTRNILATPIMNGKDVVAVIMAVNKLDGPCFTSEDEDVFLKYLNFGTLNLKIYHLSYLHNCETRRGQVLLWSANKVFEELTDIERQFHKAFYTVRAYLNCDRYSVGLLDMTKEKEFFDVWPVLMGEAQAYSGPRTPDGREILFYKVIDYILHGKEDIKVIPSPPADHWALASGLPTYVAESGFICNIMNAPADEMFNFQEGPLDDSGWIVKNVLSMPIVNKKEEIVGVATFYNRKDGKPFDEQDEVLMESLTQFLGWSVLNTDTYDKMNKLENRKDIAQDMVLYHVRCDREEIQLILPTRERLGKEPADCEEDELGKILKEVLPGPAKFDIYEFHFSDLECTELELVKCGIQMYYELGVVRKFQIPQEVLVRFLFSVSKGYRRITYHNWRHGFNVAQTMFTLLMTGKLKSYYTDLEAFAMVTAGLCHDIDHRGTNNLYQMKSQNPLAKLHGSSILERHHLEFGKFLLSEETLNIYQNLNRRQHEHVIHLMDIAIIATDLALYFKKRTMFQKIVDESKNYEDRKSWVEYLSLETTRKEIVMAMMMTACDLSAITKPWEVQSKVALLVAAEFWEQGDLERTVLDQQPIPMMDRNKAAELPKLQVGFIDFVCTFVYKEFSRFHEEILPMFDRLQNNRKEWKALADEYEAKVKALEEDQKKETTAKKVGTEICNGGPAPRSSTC
Excerpt: as §1
PDE6: PDE6 partially purified from bovine retinal rod and activated by trypsin was used. A racemic mixture of flosequinan, and each enantiomer of flosequinan, all at a molar concentration of 100 μM, were independently incubated with 0.2 μg/ml active PDE6 and 100 μM cGMP containing 0.1 μM [^3H]cGMP in Tris buffer pH 7.5 for 20 minutes at 30° C. […] Unhydrolyzed cGMP was bound to AGI-X2 resin, and [^3H]guanosine remaining in the aqueous phase was quantitated by scintillation counting.

T2 sequence (O00408 whole entry): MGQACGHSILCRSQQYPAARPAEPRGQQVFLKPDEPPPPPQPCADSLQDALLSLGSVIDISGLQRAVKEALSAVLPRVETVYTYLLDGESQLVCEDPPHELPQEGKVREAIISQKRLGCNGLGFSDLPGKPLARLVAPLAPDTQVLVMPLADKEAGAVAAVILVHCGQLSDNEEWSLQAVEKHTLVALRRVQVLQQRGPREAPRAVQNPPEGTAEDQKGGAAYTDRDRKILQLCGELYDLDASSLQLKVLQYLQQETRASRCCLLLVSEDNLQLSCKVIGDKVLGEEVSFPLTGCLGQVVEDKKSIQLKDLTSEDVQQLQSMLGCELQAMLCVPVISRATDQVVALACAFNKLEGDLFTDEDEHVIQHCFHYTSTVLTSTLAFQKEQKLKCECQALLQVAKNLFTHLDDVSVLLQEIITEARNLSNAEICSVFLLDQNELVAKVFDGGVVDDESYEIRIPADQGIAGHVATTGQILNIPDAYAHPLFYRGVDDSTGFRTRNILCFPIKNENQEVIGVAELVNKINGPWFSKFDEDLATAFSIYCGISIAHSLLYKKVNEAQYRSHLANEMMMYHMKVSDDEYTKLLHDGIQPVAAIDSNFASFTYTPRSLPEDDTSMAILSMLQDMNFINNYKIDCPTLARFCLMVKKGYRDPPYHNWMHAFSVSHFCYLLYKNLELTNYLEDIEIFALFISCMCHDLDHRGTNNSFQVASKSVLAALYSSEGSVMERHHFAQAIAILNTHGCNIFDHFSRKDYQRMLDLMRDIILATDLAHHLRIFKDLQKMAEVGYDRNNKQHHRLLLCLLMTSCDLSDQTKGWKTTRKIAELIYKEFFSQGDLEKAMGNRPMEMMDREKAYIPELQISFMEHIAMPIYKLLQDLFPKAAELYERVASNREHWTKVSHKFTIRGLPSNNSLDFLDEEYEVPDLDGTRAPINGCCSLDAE
T3 sequence (Q14432 whole entry): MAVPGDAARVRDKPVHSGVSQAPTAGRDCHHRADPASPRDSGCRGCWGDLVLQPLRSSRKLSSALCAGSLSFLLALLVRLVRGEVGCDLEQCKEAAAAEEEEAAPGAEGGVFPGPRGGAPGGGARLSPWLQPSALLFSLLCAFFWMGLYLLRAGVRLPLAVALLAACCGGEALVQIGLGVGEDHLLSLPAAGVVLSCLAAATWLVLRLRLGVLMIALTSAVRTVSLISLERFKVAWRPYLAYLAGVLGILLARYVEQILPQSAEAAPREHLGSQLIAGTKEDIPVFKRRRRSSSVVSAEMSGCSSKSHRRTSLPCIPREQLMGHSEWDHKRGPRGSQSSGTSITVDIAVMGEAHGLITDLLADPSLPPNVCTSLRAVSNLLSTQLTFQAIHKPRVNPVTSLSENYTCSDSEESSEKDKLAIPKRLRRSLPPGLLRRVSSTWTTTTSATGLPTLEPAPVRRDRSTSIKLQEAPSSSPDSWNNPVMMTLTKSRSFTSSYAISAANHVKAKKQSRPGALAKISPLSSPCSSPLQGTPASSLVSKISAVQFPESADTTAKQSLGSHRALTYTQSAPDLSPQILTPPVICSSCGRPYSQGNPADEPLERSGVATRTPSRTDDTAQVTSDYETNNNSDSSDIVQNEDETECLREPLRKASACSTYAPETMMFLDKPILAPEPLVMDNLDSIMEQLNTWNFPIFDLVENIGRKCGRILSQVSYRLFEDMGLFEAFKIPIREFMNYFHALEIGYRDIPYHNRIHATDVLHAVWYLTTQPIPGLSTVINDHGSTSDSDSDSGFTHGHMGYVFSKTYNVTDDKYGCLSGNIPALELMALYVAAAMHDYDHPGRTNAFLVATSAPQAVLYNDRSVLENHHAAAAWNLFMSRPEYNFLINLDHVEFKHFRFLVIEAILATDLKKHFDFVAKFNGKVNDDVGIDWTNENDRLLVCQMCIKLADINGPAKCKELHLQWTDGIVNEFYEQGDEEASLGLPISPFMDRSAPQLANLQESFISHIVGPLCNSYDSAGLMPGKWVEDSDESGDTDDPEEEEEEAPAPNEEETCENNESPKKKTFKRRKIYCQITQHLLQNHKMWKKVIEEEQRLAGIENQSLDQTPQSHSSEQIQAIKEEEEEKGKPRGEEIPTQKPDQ

SMILES	inhibition at 100 µM [1] [%]	% Inhibition of PDE4 [2] [%]	inhibition at 100 µM [3] [%]	% Inhibition of PDE1 [4] [%]	inhibition at 100 µM [5] [%]	% Inhibition of PDE6 [6] [%]
Cn1cc([S+](C)[O-])c(=O)c2ccc(F)cc21 (racemic) [racemic mixture of flosequinan, 7-fluoro-1-methyl-3-methylsulfinyl-4-quinolone, reference compound]	11	24	18	31	–	–
Cn1cc([S@+](C)[O-])c(=O)c2ccc(F)cc21 [(−)-flosequinan, (S)-(−)-7-fluoro-1-methyl-3-methylsulfinyl-4-quinolone]	10	1	13	11	5	–
Cn1cc([S@@+](C)[O-])c(=O)c2ccc(F)cc21 [(+)-flosequinan, (R)-(+)-7-fluoro-1-methyl-3-methylsulfinyl-4-quinolone]	17	6	18	28	32	22

Reference: patent US7084275B2, “Stereospecific enrichment of heterocyclic enantiomers” (R. T. Alamo Ventures I, LLC, priority 2001, dated 2006)
